{"source": "paper PMC6136348", "about": "“In the quest for new targets for pathogen eradication: the adenylosuccinate synthetase from the bacterium Helicobacter pylori” (Journal of Enzyme Inhibition and Medicinal Chemistry, 2018)", "key": {"[1]": {"biological_target": "T1, adenylosuccinate synthetase (AdSS) (Helicobacter pylori, UniProt P56137)", "T1 construct": "gene purA; recombinant protein expressed from pET21b-HPpurA", "T1 sequence (P56137 1-411)": "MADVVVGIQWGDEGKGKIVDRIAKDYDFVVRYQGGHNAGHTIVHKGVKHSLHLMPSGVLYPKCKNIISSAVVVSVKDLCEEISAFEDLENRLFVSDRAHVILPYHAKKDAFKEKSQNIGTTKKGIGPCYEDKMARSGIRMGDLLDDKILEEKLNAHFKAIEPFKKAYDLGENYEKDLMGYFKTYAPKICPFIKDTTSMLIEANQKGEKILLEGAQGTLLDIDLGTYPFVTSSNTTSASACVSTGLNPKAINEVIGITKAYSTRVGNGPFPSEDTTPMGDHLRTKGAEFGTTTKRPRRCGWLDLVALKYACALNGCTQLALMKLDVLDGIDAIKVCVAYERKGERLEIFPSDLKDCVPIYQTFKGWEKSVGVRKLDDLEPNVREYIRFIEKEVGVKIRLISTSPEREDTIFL", "experiment": "spectrophotometric enzyme assay at […] nm, competitive inhibition fit and Dixon plot (reaction product tested as inhibitor)", "assay_type": "biochemical"}, "[2]": {"biological_target": "T1, adenylosuccinate synthetase (AdSS)", "experiment": "spectrophotometric enzyme assay at […] nm, competitive inhibition fit and Dixon plot", "assay_type": "biochemical"}}, "data": [{"smiles": "O=C(O)C[C@H](Nc1ncnc2c1ncn2[C@@H]1O[C@H](COP(=O)(O)O)[C@@H](O)[C@H]1O)C(=O)O", "note": "[adenylosuccinate]", "values": [{"measurement": "Ki", "setting": "[1]", "value": "3500 ± 300", "unit": "nM"}]}, {"smiles": "O=CN(O)CC(=O)O", "note": "[hadacidin]", "values": [{"measurement": "Ki", "setting": "[2]", "value": "190 ± 20", "unit": "nM"}]}]}
